Here are results for one molecule from ChEMBL document CHEMBL5042544, “Discovery of a Potent and Selective ATAD2 Bromodomain Inhibitor with Antiproliferative Activity in Breast Cancer Models” (J Med Chem, 2022).

The target in test [1] is ATPase family AAA domain-containing protein 2B (Homo sapiens, UniProt Q9ULI0). The test can be described thus: Binding affinity to human ATAD2B bromodomain assessed as dissociation constant by BROMOscan method.
In test [2] the target is Bromodomain-containing protein 4 (Homo sapiens, UniProt O60885). The test can be described thus: Binding affinity to human BRD4 bromodomain 1 assessed as residual activity at 300 nM by BROMOscan method relative to control.
Test [3] addresses T1, Bromodomain-containing protein 2 (Homo sapiens, UniProt P25440). The test can be described thus: Binding affinity to human BRD2 bromodomain 1 assessed as residual activity at 300 nM by BROMOscan method relative to control.
Test [4] deals with T2, ATPase family AAA domain-containing protein 2 (Homo sapiens, UniProt Q6PL18).
T2 sequence (Q6PL18 whole entry): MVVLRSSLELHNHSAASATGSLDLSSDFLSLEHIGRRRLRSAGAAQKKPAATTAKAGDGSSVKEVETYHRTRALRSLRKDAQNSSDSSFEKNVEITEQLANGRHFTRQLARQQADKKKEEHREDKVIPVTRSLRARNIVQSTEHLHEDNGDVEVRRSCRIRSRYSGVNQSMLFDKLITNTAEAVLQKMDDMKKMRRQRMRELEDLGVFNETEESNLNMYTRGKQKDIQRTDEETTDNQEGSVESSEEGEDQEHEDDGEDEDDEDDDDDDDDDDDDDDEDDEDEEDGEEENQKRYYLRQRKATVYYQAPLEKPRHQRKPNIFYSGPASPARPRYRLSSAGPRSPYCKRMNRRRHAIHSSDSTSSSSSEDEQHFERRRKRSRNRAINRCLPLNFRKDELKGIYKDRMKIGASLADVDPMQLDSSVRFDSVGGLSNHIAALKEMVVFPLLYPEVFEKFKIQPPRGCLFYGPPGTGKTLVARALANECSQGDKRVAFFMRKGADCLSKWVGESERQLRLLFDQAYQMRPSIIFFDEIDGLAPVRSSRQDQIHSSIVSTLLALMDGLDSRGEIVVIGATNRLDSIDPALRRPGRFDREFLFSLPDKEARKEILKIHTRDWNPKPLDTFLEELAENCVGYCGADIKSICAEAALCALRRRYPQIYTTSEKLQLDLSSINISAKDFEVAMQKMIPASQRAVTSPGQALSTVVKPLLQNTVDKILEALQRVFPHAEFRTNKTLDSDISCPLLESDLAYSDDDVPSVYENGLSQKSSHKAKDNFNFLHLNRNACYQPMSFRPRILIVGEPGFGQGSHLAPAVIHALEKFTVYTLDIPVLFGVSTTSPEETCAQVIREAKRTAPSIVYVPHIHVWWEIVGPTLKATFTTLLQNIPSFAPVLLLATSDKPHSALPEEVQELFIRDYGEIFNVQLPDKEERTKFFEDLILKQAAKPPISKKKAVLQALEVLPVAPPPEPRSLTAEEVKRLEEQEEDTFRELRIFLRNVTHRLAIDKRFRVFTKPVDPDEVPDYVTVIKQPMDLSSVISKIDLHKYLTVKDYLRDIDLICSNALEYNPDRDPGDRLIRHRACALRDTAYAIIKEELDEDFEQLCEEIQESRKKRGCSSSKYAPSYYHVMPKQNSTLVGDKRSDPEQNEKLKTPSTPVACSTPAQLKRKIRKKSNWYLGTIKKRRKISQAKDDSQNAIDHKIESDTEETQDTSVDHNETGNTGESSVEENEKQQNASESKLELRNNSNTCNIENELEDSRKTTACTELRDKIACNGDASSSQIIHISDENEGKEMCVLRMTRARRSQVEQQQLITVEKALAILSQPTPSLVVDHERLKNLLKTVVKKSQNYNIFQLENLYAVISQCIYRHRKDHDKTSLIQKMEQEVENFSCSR
The test can be described thus: Displacement of Halo-tagged Histone H3.3 from Nanoluc-ATAD2A BD (962 to 1119 residues) (unknown origin) transfected in human HCT116 cells incubated for 18 hrs by NanoBRET assay. Type of test: cell-based, HCT-116. For orientation: Bioluminescence resonance energy transfer reports proximity on the nanometre scale.

Test [5] deals with T3, Histone acetyltransferase p300 (Homo sapiens, UniProt Q09472). The test can be described thus: Binding affinity to human EP300 bromodomain assessed as residual activity at 300 nM by BROMOscan method relative to control.
For test [6], the target named is Bromodomain-containing protein 7 (Homo sapiens) (UniProt Q9NPI1). The test can be described thus: Binding affinity to human BRD7 bromodomain assessed as residual activity at 300 nM by BROMOscan method relative to control.
Test [7] has as its target T2, ATPase family AAA domain-containing protein 2. The test can be described thus: Inhibition of GST-ATAD2 BD (951 to 1132 residues) (unknown origin) expressed in Escherichia coli BL21 (DE3) and biotinylated tetra-acetylated histone H4 peptides as substrate by TR-FRET artifact assay. A general note: In TR-FRET formats the signal depends on donor and acceptor labels being close together.

Test [8] shares this target. The test can be described thus: Displacement of Halo-tagged Histone H3.3 from Nanoluc-ATAD2 BD (962 to 1119 residues) (unknown origin) transfected in human HCT116 cells incubated for 18 hrs in presence of efflux inhibitor verapamil by NanoBRET assay. Type of test: cell-based, HCT-116.
For test [9], the target named is Bromodomain testis-specific protein (Homo sapiens, UniProt Q58F21). The test can be described thus: Binding affinity to human BRDT bromodomain 2 assessed as residual activity at 300 nM by BROMOscan method relative to control.
Test [10] has as its target Bromodomain-containing protein 9 (Homo sapiens) (UniProt Q9H8M2). The test can be described thus: Binding affinity to human BRD9 bromodomain assessed as residual activity at 300 nM by BROMOscan method relative to control.
For test [11], the target named is T3, Histone acetyltransferase p300. The test can be described thus: Binding affinity to human EP300 bromodomain assessed as dissociation constant by BROMOscan method.
Test [12] deals with E3 ubiquitin-protein ligase TRIM33 (Homo sapiens) (UniProt Q9UPN9). The test can be described thus: Binding affinity to human TRIM33 bromodomain assessed as residual activity at 300 nM by BROMOscan method relative to control.
Test [13] concerns the target Transcription initiation factor TFIID subunit 1 (Homo sapiens, UniProt P21675). The test can be described thus: Binding affinity to human TAF1 bromodomain 2 assessed as residual activity at 300 nM by BROMOscan method relative to control.
Test [14] concerns the target Bromodomain-containing protein 3 (Homo sapiens, UniProt Q15059). The test can be described thus: Binding affinity to human BRD3 bromodomain 1 assessed as residual activity at 300 nM by BROMOscan method relative to control.
Test [15] deals with T1, Bromodomain-containing protein 2. The test can be described thus: Binding affinity to human BRD2 bromodomain 2 assessed as dissociation constant by BROMOscan method.
Test [16] deals with SWI/SNF-related matrix-associated actin-dependent regulator of chromatin subfamily A member 4 (Homo sapiens) (UniProt P51532). The test can be described thus: Binding affinity to human SMARCA4 bromodomain assessed as residual activity at 300 nM by BROMOscan method relative to control.
Test [17] has as its system EVSA-T. The test can be described thus: Antiproliferative activity against human EVSA-T cells expressing ATAD2 assessed as inhibition of colony formation at 0.01 to 10 uM measured after 14 to 21 days by AlamarBlue staining based colony formation assay. Type of test: functional, cell-based. As to conditions: dose 0.01-10 µM, time 14-21 day. (In general: The colour change of resazurin is a common sign of viable cells or microbes.)

The target of test [18] is Histone acetyltransferase KAT2B (Homo sapiens, UniProt Q92831). The test can be described thus: Binding affinity to human PCAF bromodomain assessed as residual activity at 300 nM by BROMOscan method relative to control.

T3 sequence (Q09472 whole entry): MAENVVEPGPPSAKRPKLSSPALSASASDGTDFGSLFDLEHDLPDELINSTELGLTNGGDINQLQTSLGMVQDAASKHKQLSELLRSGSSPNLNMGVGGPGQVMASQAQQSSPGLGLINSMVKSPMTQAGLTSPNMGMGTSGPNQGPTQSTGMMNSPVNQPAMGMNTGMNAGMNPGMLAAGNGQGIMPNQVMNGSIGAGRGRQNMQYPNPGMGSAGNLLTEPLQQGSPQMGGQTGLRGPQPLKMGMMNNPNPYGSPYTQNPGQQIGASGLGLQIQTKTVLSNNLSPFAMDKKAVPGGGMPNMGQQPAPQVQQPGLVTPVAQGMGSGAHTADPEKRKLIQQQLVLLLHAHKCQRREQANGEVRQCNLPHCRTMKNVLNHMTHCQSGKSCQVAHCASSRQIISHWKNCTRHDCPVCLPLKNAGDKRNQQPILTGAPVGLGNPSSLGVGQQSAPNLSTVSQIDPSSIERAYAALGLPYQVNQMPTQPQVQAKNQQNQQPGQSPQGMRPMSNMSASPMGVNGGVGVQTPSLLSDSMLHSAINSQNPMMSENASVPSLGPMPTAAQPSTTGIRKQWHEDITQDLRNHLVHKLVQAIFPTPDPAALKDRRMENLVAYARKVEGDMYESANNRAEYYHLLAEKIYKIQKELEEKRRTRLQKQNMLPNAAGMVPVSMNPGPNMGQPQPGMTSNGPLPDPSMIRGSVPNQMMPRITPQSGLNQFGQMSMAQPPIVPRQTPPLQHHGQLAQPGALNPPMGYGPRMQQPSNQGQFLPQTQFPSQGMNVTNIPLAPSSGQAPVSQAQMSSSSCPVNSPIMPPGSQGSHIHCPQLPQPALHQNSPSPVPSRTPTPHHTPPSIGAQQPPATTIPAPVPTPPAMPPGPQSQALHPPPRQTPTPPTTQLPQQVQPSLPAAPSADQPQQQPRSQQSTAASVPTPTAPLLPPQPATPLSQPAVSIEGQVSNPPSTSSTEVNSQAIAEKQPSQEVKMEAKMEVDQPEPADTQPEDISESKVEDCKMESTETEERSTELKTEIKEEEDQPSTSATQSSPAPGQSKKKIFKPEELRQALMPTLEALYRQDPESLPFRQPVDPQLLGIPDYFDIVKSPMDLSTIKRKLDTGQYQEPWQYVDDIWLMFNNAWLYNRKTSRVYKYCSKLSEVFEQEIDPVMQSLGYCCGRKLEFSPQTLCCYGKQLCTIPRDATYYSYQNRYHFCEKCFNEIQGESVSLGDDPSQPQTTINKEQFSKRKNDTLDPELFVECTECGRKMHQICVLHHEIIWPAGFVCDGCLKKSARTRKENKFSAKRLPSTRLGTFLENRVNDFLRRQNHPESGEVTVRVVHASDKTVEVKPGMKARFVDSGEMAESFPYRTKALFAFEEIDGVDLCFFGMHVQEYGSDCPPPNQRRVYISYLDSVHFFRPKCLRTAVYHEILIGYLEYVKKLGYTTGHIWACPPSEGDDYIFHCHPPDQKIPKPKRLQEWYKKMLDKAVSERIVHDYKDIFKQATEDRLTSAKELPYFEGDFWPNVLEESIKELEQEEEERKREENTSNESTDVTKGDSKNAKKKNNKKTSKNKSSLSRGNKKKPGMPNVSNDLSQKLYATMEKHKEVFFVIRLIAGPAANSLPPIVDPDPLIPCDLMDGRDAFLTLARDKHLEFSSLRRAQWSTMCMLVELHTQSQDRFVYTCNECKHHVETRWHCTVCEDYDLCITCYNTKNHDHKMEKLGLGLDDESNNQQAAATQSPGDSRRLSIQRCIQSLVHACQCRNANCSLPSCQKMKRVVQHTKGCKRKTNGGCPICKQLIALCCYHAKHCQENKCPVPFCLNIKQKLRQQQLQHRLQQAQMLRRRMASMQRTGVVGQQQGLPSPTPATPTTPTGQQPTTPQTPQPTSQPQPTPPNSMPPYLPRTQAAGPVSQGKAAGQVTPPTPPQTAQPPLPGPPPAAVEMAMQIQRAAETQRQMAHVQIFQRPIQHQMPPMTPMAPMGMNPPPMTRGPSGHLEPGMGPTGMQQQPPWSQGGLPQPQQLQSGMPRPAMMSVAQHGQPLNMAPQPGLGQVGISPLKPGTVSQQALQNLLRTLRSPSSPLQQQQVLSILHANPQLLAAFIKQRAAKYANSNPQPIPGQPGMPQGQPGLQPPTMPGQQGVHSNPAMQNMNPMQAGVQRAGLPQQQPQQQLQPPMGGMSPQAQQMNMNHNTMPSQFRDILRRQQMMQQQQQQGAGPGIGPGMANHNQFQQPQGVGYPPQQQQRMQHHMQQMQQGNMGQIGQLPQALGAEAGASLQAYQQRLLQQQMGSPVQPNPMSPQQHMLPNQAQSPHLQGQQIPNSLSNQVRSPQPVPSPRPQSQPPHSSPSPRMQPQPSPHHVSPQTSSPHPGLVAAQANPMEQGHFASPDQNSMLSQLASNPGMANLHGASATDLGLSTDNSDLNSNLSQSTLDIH
Sequence of Transcription initiation factor TFIID subunit 1 (P21675 whole entry): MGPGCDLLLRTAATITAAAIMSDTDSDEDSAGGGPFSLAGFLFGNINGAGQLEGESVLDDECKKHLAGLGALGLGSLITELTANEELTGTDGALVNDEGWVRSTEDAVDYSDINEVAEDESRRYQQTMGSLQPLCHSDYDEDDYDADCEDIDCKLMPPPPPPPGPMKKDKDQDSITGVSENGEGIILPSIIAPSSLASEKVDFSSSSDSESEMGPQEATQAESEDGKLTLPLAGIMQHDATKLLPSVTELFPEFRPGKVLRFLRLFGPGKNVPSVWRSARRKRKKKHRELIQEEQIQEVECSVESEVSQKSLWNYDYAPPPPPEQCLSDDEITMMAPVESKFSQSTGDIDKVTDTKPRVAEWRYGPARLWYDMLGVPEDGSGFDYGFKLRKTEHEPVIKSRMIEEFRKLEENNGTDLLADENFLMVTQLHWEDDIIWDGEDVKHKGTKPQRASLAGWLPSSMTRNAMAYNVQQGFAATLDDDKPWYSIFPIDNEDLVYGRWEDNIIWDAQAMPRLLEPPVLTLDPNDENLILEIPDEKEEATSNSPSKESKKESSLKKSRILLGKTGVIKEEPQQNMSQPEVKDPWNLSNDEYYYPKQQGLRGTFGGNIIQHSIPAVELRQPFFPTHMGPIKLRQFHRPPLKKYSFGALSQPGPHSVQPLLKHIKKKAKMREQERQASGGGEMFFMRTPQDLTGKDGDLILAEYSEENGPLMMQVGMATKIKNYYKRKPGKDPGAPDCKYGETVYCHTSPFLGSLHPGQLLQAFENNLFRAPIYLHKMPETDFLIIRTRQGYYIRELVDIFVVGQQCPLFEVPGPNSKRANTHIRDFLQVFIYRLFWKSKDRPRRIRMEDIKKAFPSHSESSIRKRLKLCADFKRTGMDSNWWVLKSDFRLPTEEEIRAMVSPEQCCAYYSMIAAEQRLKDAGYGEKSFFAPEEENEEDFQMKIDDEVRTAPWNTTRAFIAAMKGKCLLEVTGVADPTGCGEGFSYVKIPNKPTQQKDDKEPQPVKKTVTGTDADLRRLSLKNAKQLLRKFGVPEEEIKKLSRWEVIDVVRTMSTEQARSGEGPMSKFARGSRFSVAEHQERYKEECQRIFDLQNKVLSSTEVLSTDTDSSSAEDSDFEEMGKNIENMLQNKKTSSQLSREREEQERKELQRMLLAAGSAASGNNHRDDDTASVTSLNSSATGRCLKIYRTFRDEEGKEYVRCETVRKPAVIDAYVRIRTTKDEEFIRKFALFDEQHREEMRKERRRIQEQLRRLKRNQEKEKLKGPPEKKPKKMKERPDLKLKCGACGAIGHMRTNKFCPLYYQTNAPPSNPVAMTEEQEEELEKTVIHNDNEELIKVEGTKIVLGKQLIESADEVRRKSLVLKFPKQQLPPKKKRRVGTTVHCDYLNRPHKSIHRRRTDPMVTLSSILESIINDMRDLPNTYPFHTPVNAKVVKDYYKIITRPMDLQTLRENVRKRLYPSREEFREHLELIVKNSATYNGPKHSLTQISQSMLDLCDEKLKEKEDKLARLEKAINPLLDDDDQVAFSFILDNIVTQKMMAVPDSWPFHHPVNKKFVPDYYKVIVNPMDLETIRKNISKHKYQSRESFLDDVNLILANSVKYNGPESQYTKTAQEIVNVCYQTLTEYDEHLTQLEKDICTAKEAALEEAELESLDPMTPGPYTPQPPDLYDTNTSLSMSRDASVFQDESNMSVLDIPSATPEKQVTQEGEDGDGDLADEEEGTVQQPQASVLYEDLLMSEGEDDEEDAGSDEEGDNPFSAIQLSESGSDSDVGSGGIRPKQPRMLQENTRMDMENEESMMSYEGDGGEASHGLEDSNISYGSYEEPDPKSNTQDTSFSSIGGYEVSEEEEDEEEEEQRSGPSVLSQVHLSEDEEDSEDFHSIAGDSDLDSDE
Sequence of Bromodomain-containing protein 9 (Homo sapiens) (Q9H8M2 whole entry): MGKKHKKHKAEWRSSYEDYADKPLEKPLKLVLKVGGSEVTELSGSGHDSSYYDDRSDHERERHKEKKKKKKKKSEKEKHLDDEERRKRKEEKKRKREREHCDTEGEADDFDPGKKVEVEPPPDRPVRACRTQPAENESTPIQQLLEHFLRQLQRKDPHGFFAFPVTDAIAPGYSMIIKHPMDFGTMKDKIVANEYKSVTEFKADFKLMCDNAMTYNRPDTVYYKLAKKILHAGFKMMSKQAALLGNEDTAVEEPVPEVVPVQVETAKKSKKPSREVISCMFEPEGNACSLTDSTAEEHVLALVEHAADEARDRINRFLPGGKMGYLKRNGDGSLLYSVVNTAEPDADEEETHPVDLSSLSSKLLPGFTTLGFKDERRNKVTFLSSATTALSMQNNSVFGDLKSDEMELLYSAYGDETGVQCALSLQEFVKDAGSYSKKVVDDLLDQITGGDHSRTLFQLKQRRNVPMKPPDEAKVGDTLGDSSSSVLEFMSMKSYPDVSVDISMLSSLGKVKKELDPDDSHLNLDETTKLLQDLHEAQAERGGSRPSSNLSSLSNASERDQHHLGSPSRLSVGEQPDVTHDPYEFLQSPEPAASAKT

For orientation: Kd means the equilibrium constant for the complex coming apart. Usually IC50 stands for the midpoint of a concentration-inhibition curve. As for `Cc1nnc2c(NC3CCN(CC(C)(C)F)CC3)cc(C(=O)N3[C@@H]4c5ccccc5C[C@H]3C(=O)N[C@@H]4C(C)C)nn12`, the Kd in test [1] is 7.94 nM; in test [11], greater than 3160 nM; in [15], 200 nM. For the same molecule, the Activity in test [2] amounted to 86%; in test [3] it was 47%; in [5] it was 41%; in test [6], 73%; in [9] it was 71%; in test [10] it was 64%. Besides, the Activity is 96% in test [12]; 44% in test [13]; 90% in [14]; 80% in test [16]; “Dose-Dependent Effect” in [17]; 62% in test [18]. Moreover, the figures for the IC50 in test [4], in [7] and in test [8] were 126 nM, greater than 25100 nM and 50.1 nM, respectively.
